Assay results from US20260234147A1 (priority 2023, published 2026).
Where two headings read alike, the source gives them in different places.

What was measured:
α2C adrenergic receptor = target: T1, α2C adrenergic receptor (Homo sapiens, UniProt P18825); assay: Radioligand binding assay (Eurofins Cerep), [3H]RX 821002 displacement; details: Table B1, mean ± SEM, 3 independent experiments
T1 construct: Eurofins Cerep (contract screening)
T1 sequence (P18825 1-462): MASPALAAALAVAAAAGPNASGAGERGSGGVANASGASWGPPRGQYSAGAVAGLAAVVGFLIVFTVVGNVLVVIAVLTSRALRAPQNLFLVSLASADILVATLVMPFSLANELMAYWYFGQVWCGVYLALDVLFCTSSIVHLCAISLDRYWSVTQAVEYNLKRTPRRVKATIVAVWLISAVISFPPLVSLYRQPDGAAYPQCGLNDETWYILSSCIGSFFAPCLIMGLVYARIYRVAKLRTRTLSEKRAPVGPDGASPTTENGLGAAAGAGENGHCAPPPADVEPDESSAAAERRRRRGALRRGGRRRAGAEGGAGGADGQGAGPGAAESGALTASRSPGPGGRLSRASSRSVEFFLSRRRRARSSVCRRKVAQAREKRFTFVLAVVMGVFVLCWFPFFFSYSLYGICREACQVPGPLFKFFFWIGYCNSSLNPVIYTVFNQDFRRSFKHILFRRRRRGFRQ

hMOR = hMOR (Homo sapiens, UniProt P35372); assay: Radioligand binding assay (Eurofins Cerep), [3H]DAMGO displacement; details: read-out: MOR Ki ± SEM
α2A adrenergic receptor = target: T2, α2A adrenergic receptor (Homo sapiens, UniProt P08913); assay: Radioligand binding assay (Eurofins Cerep), [3H]RX 821002 displacement
T2 construct: Eurofins Cerep (contract screening)
T2 sequence (P08913 1-465): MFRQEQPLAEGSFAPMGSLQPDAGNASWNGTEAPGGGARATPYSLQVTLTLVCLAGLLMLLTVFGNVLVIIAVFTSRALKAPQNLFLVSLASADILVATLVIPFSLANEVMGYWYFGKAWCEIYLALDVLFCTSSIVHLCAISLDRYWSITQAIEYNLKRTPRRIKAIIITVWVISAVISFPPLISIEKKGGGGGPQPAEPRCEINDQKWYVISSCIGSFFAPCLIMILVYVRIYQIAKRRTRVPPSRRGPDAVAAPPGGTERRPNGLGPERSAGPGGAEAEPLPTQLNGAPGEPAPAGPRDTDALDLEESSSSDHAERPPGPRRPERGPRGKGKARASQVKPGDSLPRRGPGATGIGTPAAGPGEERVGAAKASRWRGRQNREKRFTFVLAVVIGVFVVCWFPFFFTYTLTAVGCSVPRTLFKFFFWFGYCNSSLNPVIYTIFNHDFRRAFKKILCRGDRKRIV

hKOR = hKOR (Homo sapiens, UniProt P41145); assay: Radioligand binding assay (Eurofins Cerep), [3H]U69,593 displacement; details: Table B1′; read-out: KOR Ki ± SEM
hDOR = hDOR (Homo sapiens, UniProt P41143); assay: Radioligand binding assay (Eurofins Cerep), [3H]DADLE displacement; details: Table B1′; read-out: DOR Ki ± SEM
[1] = Table B1, mean ± SEM, 3 independent experiments
[2] = alpha2A Ki ± SEM (nM), Table B1′

Sequence of hDOR (P41143 whole entry): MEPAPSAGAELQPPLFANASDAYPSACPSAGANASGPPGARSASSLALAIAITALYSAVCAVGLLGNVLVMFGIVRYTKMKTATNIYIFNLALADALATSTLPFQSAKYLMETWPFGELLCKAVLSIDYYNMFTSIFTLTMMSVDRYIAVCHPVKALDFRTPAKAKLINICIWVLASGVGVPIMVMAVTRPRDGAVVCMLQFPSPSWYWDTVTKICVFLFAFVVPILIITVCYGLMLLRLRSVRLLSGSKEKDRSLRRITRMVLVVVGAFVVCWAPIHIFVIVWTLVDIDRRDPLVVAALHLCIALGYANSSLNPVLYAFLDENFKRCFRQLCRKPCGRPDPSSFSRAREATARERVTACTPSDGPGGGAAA
Sequence of hMOR (P35372 whole entry): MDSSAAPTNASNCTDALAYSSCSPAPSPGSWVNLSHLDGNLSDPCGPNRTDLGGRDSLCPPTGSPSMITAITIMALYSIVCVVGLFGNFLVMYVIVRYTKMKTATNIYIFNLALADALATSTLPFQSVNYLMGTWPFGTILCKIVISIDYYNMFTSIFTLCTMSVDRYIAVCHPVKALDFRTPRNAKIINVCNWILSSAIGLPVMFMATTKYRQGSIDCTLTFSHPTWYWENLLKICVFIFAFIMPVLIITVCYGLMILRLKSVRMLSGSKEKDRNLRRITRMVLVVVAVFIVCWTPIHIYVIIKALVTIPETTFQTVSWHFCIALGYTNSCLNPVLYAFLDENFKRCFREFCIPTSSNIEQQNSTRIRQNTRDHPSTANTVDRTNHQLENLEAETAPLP
Sequence of hKOR (P41145 whole entry): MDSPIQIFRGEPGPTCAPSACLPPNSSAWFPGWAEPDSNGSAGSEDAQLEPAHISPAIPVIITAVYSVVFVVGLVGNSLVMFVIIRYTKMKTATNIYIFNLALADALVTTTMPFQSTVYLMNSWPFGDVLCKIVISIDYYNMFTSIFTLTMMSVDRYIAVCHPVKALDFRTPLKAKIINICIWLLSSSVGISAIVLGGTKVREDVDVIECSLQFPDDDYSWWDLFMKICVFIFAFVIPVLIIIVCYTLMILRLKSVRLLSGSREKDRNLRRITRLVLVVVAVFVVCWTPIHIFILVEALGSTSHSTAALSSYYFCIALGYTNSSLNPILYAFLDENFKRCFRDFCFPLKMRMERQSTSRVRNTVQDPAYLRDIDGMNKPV

| SMILES | Ki (α2C adrenergic receptor; read-out: Alpha2C Ki ± SEM) | Ki (hMOR; [1]) | Ki (α2A adrenergic receptor; Alpha2A Ki ± SEM (nM), Table B1, mean ± SEM, 3 independent experiments) | Ki (α2C adrenergic receptor; Alpha2C Ki ± SEM (nM)) | Ki (α2A adrenergic receptor; Table B1, mean ± SEM, 3 independent experiments, read-out: Alpha2A Ki ± SEM) | Ki (hKOR) | Ki (hDOR) | Ki (hMOR; Table B1′) | Ki (α2A adrenergic receptor; [2]) | Ki (α2A adrenergic receptor; Table B1′, read-out: alpha2A Ki ± SEM) |
| --- | --- | --- | --- | --- | --- | --- | --- | --- | --- | --- |
| COC(=O)CC1CCN2CCC(O)(c3ccccc3OC)CC2C1 (stereo not drawn) [SG-01-006, Methyl 2-(8-hydroxy-8-(2-methoxyphenyl)octahydro-1H-quinolizin-2-yl)acetate] | 139 ± 20.3 nM | > 10 µM | 376 ± 72.2 nM | – | – | – | – | – | – | – |
| COC(=O)CC1CCN2CCC(c3ccccc3OC)CC2C1 (stereo not drawn) [SG-01-008, Methyl 2-(8-(2-methoxyphenyl)octahydro-1H-quinolizin-2-yl)acetate] | – | > 10 µM | – | 13.6 ± 0.828 nM | 27.9 ± 3.05 nM | – | – | – | – | – |
| COC(=O)C=C1CCN2CCC(O)(c3ccccc3OC)CC2C1 (stereo not drawn) [drawing 167] | – | – | – | – | – | > 10 µM | 2.94 ± 2.55 µM | > 10 µM | 227 ± 37 nM | – |
| COC(=O)CC1CCN2CCC(c3ccccc3OC)CC2C1 (stereo not drawn) [drawing 171] | – | – | – | – | – | > 10 µM | > 10 µM | > 10 µM | – | 24 ± 3 nM |
| COC(=O)CC1CCN2CCC(O)(c3ccccc3)CC2C1 (stereo not drawn) [drawing 173] | – | – | – | – | – | 3.6 ± 1.08 µM | > 10 µM | 8.61 ± 2.53 µM | 129 ± 49 nM | – |
| COC(=O)C=C1CCN2CCC(O)(c3ccccc3)CC2C1 (stereo not drawn) [drawing 176] | – | – | – | – | – | 7.66 ± 2.67 µM | > 10 µM | > 10 µM | 155 ± 65 nM | – |
| COC(=O)C=C1CCN2CCC(O)(c3cccc(OC)c3)CC2C1 (stereo not drawn) [drawing 179] | – | – | – | – | – | > 10 µM | > 10 µM | > 10 µM | 37 ± 3 nM | – |
| COC(=O)C=C1CCN2CCC(O)(c3cccc(OC)c3)CC2C1 (stereo not drawn) [drawing 180] | – | – | – | – | – | > 10 µM | > 10 µM | > 10 µM | 44 ± 5 nM | – |
